Values joined by “and” are separate entries in the source; they are usually repeats but may differ in a detail not shown here. Equal values may be shown once. Blank lines part the entries; values can stand above or below the compound they belong to.
How the values were obtained:
SV2AEM = target: T1, SV2AEM (Homo sapiens, UniProt Q7L0J3); experiment: Competitive displacement of 10 nM 3H-UCB-J, SV2AEM membranes (Fig. 1A); type: binding; conditions: for Binding of 3H-UCB-J (%): SV2A_EM; for binding response of SV2AEM vs wild-type SV2A: competition with 3H-UCB-J
T1 construct: expressed in transfected cells; host or cells: HEK293 (ATCC CRL-1573), crude membranes (transient transfection or baculovirus)
T1 sequence (Q7L0J3 141-742): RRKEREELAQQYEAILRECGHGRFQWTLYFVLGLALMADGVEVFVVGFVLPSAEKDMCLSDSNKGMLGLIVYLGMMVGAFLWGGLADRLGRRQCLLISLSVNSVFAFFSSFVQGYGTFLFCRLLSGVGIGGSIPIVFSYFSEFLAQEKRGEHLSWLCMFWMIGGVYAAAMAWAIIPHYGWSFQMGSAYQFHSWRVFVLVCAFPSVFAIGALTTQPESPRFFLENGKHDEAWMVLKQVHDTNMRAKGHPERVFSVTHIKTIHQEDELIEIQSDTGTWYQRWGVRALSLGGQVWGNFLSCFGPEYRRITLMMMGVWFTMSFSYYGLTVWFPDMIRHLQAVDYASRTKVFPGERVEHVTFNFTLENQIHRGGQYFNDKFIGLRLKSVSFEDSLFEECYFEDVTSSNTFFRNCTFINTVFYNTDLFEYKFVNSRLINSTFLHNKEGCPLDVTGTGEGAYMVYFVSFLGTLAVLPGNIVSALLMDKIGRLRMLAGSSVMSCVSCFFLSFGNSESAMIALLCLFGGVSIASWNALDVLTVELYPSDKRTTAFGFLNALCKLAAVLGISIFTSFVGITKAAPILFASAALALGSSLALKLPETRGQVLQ
Description: (§1) Ligand binding studies were carried out using crude membranes prepared from HEK293 cells (ATCC, CRL-1573) overexpressing mVenus-SV2AWT or SV2AEM. Membranes were prepared either from transiently transfected cells or from baculovirus-infected cells as described previously. Cells were washed with DPBS (Ca^2+ and Mg^2+ free), followed by resuspending in cold SH buffer (10 mM HEPES-Tris pH 7.4, 320 mM sucrose) containing protease inhibitor cocktail (MedChemExpress) to a density of 10^7 cells/ml. This cell suspension was homogenized by passing through a bead homogenizer (Isobiotec) with 10-micron clearance bead on ice. The lysate was then centrifuged at 4000 × g for 5 min at 4 °C, and the supernatant was aliquoted, frozen in liquid nitrogen, and stored at −80 °C. The mVenus fluorescence estimated using fluorescence size-exclusion chromatography (FSEC) was used to normalize expression levels of mVenus-SV2A mutants studied as detailed previously. For all binding studies, membranes containing […] protein (estimated by BCA method) per reaction were used.
(§2) To obtain dose-response curves of studied SV2A ligands, membranes diluted in 0.2 ml binding buffer (50 mM Tris-Cl, pH 7.4, and 2 mM MgCl2) were incubated with indicated concentrations of ligands for 30 min at 4 °C. […] The binding reaction was arrested by trapping membranes on Unifilter-GF/C 96-well filter plates (Revvity) pre-soaked with 0.1%(w/v) polyethyleneimine (PEI). Membranes were then washed four times with 0.2 ml of cold binding buffer, dried, and 40 µl of scintillation liquid was added to each well. Radioactivity was monitored in MicroBeta2 plate counter (Revvity). Estimates for IC50 were obtained from fitting the data to three-parameter dose-response curves using GraphPad Prism 10.

SV2AWT = target: T2, SV2AWT (Homo sapiens, UniProt Q7L0J3); experiment: Competitive displacement of 10 nM 3H-UCB-J, SV2AWT membranes (Fig. 1A); type: binding; conditions: SV2A_WT
T2 construct: expressed in transfected cells; host or cells: HEK293 (ATCC CRL-1573), crude membranes
T2 sequence (Q7L0J3 whole entry): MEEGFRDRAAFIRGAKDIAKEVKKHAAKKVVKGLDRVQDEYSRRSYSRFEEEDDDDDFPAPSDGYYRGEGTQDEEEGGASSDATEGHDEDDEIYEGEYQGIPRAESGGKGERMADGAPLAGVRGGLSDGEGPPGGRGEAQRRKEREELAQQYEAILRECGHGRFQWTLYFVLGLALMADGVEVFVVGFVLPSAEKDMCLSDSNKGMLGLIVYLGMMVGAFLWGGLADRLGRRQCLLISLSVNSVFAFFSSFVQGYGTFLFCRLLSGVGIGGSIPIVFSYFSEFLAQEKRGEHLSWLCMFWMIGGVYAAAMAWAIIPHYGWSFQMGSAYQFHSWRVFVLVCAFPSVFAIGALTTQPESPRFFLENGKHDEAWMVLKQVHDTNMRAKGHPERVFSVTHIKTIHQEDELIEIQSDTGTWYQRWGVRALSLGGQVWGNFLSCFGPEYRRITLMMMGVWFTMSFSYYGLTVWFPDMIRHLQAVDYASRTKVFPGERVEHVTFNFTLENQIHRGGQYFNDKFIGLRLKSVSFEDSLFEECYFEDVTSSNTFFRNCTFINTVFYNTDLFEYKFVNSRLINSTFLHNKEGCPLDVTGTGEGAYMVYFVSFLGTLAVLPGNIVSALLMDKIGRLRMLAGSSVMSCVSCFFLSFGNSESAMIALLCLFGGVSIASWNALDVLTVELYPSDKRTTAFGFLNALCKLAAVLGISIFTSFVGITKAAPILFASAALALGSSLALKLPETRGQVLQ
Description: as §1, §2

SV2A WT and L655Q [1] = test system: SV2A WT and L655Q; set-up: method as in PMID: 31619465; conditions: previous literature; ref PMID: 31619465; cited from earlier work
SV2A [2] = test system: SV2A; set-up: method as in PMID: 31619465; conditions: PSL vs BRV; ref PMID: 31619465; cited from earlier work
SV2A WT and L655Q [3] = experiment: 3H-padsevonil saturation binding, WT and L655Q (Supplementary Fig. 7D); set-up: species or system human; conditions: L655Q vs WT
Description: as §1
An equal volume of dimethyl sulfoxide (DMSO) was added to control reactions. Reactions were arrested after 2 h by trapping the membranes on a Unifilter-GF/C 96-well filter plate pre-soaked with 0.1%(w/v) polyethyleneimine. […] Radioactivity was monitored in MicroBeta2 plate counter. […]

SV2A [4] = experiment: Affinity of PSL for the orthosteric site compared with LEV and BRV (author response); type: binding; conditions: PSL vs LEV
Text: - Does PSL modulate the binding of LEV or BRV to SV2A? Based on the ﬁndings of the present study, such experiments need to be included.
We appreciate this comment. It is not feasible to evaluate the modulatory eƯect of PSL on the binding of LEV or BRV, because PSL also binds to the orthosteric site, with much higher aƯinity than LEV (>1000-fold) or BRV (~100-fold), and directly competes with and readily displaces them (see Fig. below, for LEV , and PMID:
31619465 for BRV). This competitive eƯect of PSL on LEV and BRV has also been described in the literature (PMID: 31619465). We have discussed this limitation in the revised manuscript.
- SV2s belong to the SLC22 family. Is the allosteric binding site conserved in some of these proteins like for […]
Among the four key residues in the allosteric site (F188, Y461, S601, and L655), F188 and Y461 are conserved in OCT1 and OCT2; S601 is not conserved, and L655 is replaced by an alanine in OCT1 and OCT2 (Fig. below).
- Because no information is provided, I guess that the allosteric binding site of SV2A is not conserved in all MFS transporters. Therefore, the title is misleading and should be changed.
As described above, some of the key residues at this site are conserved in OCTs. However, it is unlikely that any single site, orthosteric or allosteric, is conserved across the entire MFS transporter family, and we fully […]

Binding of 3H-UCB-J (%) (SV2AEM; Log [1H-UCB-J] (M) -10.000): 81.17% and 90.15% | IC50 fold lower than that of levetiracetam (SV2AEM; UCB-J vs levetiracetam): 1000 fold | binding response of SV2AEM vs wild-type SV2A (SV2AEM): comparable to those of wild-type SV2A | IC50 (SV2AEM; radioligand displacement, 10 nM 3H-UCB-J, padsevonil sentence prints SV2A (Fig. 1)): 4.1 ± 0.4 nM | Binding of 3H-UCB-J (%) (SV2AWT; Log [1H-UCB-J] (M) -5.000): 0.68% and -0.10%
SMILES: Cc1cnccc1CN1C[C@@H](c2cc(F)c(F)c(F)c2)CC1=O [UCB-J]
Binding of 3H-UCB-J (%) (SV2AEM; Log [1H-UCB-J] (M) -6.523): 2.78% and -1.47% and -5.78% and -0.31% and 4.06% and 1.75% | Binding of 3H-UCB-J (%) (SV2AEM; Log [1H-UCB-J] (M) -7.523): 15.59% and 10.62% and 12.56% and 12.68% and 13.47% and 20.94% | Binding of 3H-UCB-J (%) (SV2AEM; Log [1H-UCB-J] (M) -8.000): 31.93% and 22.52% and 28.83% and 28.77% and 31.87% and 32.29% | Binding of 3H-UCB-J (%) (SV2AEM; Log [1H-UCB-J] (M) -8.523): 75.64% and 50.69% and 48.99% and 56.15% and 58.52% and 59.86% | Binding of 3H-UCB-J (%) (SV2AEM; Log [1H-UCB-J] (M) -9.000): 73.21% and 53.48% and 72.67% and 79.47% and 76.43% and 84.63% | Binding of 3H-UCB-J (%) (SV2AEM; Log [1H-UCB-J] (M) -11.000): 103.75% and 70.18% and 88.51% and 77.34% and 86.03% and 113.17% | Binding of 3H-UCB-J (%) (SV2AEM; Log [1H-UCB-J] (M) -12.000): 116.50% and 86.88% and 109.04% and 74.97% and 104.60% and 108.00% | Binding of 3H-UCB-J (%) (SV2AWT; Log [1H-UCB-J] (M) -6.000): 0.71% and -0.36% and 1.84% and 0.28% and 0.81% and 0.45% | Binding of 3H-UCB-J (%) (SV2AWT; Log [1H-UCB-J] (M) -6.523): 1.22% and 0.52% and -0.33% and 0.54% and 1.39% and 0.90% | Binding of 3H-UCB-J (%) (SV2AWT; Log [1H-UCB-J] (M) -7.523): 12.02% and 10.25% and 9.91% and 8.99% and 8.62% and 8.05% | Binding of 3H-UCB-J (%) (SV2AWT; Log [1H-UCB-J] (M) -8.000): 31.03% and 29.35% and 27.21% and 30.71% and 28.47% and 28.55% | Binding of 3H-UCB-J (%) (SV2AWT; Log [1H-UCB-J] (M) -8.523): 65.52% and 65.94% and 58.12% and 42.68% and 40.88% and 45.33% | Binding of 3H-UCB-J (%) (SV2AWT; Log [1H-UCB-J] (M) -9.000): 87.65% and 87.60% and 75.33% and 94.15% and 69.01% and 65.28% | Binding of 3H-UCB-J (%) (SV2AWT; Log [1H-UCB-J] (M) -9.523): 75.61% and 87.06% and 81.72% and 100.70% and 107.65% and 91.65% | Binding of 3H-UCB-J (%) (SV2AWT; Log [1H-UCB-J] (M) -10.000): 99.86% and 95.05% and 102.73% and 88.69% and 93.37% and 102.84% | Binding of 3H-UCB-J (%) (SV2AWT; Log [1H-UCB-J] (M) -11.000): 103.52% and 102.05% and 94.43% and 83.50% and 83.58% and 84.45%

binding response of SV2AEM vs wild-type SV2A (SV2AEM): comparable to those of wild-type SV2A
SMILES: COCc1nn2c(CN3C[C@@H](CC(F)(F)Cl)CC3=O)c(C(F)(F)F)nc2s1 [padsevonil]
Hill coefficient (SV2A WT and L655Q [1]): ~1 | orthosteric site affinity higher than BRV (SV2A [2]): ~ 100 fold | Binding of 3H-UCB-J (%) (SV2AEM; Log [Padsevonil] (M) -5.000): 3.25% and 0.52% and -0.52% and -1.49% and 2.74% and 1.94% | Binding of 3H-UCB-J (%) (SV2AEM; Log [Padsevonil] (M) -6.000): 0.40% and 1.18% and 0.39% and -2.99% and 2.99% and -0.40% | Binding of 3H-UCB-J (%) (SV2AEM; Log [Padsevonil] (M) -6.523): 3.53% and 6.77% and 1.25% and 5.54% and 6.72% and 2.16% | Binding of 3H-UCB-J (%) (SV2AEM; Log [Padsevonil] (M) -8.000): 61.56% and 69.84% and 60.36% and 64.16% and 85.63% and 52.51% | Binding of 3H-UCB-J (%) (SV2AEM; Log [Padsevonil] (M) -8.523): 98.63% and 86.36% and 64.73% and 84.51% and 93.84% and 76.42% | Binding of 3H-UCB-J (%) (SV2AEM; Log [Padsevonil] (M) -9.000): 99.89% and 102.95% and 84.66% and 80.15% and 101.99% and 100.11% | Binding of 3H-UCB-J (%) (SV2AEM; Log [Padsevonil] (M) -10.000): 102.45% and 91.95% and 108.05% and 96.45% and 103.55% and 82.92% | padsevonil binding in L655Q mutant compared to wild-type (SV2A WT and L655Q [3]): not able to detect a substantial difference | Binding of 3H-UCB-J (%) (SV2AWT; Log [Padsevonil] (M) -5.523): 0.15% and -0.08% and -0.07% and 0.0758% and -0.0562% | Binding of 3H-UCB-J (%) (SV2AWT; Log [Padsevonil] (M) -6.000): 0.06% and 0.26% and 0.47% and 0.68% and 0.17% and 0.52% | Binding of 3H-UCB-J (%) (SV2AWT; Log [Padsevonil] (M) -6.523): -0.0333% and 0.63% and 1.13% and 0.79% and 1.06% | Binding of 3H-UCB-J (%) (SV2AWT; Log [Padsevonil] (M) -7.000): 0.99% and 1.18% and 1.52% and 1.41% and 1.96% and 1.26% | Binding of 3H-UCB-J (%) (SV2AWT; Log [Padsevonil] (M) -7.523): 11.48% and 11.90% and 12.69% and 11.26% and 10.29% and 8.18% | Binding of 3H-UCB-J (%) (SV2AWT; Log [Padsevonil] (M) -8.000): 53.01% and 65.10% and 62.58% and 68.15% and 66.28% and 57.17% | Binding of 3H-UCB-J (%) (SV2AWT; Log [Padsevonil] (M) -8.523): 80.92% and 83.61% and 90.83% and 87.28% and 90.55% and 93.06% | Binding of 3H-UCB-J (%) (SV2AWT; Log [Padsevonil] (M) -9.000): 70.83% and 92.57% and 94.89% and 80.96% and 85.33% and 98.78% | Binding of 3H-UCB-J (%) (SV2AWT; Log [Padsevonil] (M) -9.523): 81.14% and 79.95% and 92.20% and 92.92% and 81.04% and 90.08% | Binding of 3H-UCB-J (%) (SV2AWT; Log [Padsevonil] (M) -10.000): 105.07% and 88.23% and 106.70% and 105.83% and 107.31% and 86.86% | orthosteric site affinity higher than LEV (SV2A [4]): > 1000 fold

Source: publication PMC12663137 (Nature Communications, 2025)
